Reference: US11370774B2, “Substituted benzofuran, benzopyrrole, benzothiophene, and structurally related complement inhibitors” (BioCryst Pharmaceuticals, Inc., priority 2018, dated 2022)

The compounds below were run against Factor D (Homo sapiens (Human), UniProt P00746) (assay: Factor D esterolytic assay (Z-Lys-SBzl substrate, DTNB, 405 nm)). Settings: Z-Lys-SBzl 1.29 mM, pH 7.5, 10% DMSO, tested a minimum of three times, read-out: Measured Ki (IC50) Value for Compounds: IC50.
Assay type: biochemical
In short: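 Thioester hydrolysis (Z-Lys-SBzl, 1.29 mM) by human Factor D ([…]) detected through DTNB color at 405 nm over 600 sec, minus 690 nm background. Buffer: 100 mM HEPES pH 7.5, 500 mM NaCl, 10% DMSO; optional room-temperature preincubation before substrate. IC50 derived from percent rate inhibition; at least three runs.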

Factor D, sequence (P00746 26-253): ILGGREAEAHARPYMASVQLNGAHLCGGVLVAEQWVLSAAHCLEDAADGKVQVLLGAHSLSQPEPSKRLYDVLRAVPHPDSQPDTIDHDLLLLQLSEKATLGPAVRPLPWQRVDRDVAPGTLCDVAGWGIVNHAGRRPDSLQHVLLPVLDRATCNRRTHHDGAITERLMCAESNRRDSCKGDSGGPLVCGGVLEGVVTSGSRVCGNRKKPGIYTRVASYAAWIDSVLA

Row | Structure (SMILES) | IC50 [nM]
1 | NCc1cc(-c2cc(COc3ccc(F)cc3CC(=O)O)cc3ccoc23)ccn1 [Compound 329b, 2-(2-((7-(2-(aminomethyl)pyridin-4-yl)benzofuran-5-yl)methoxy)-5-fluorophenyl)acetic acid] | < 1000
2 | COc1ccc(C(SC)C(=O)O)c(OCc2cc(-c3cccc(CN)c3)c3occc3c2)c1 (stereo not shown) [Compound 321f, 2-(2-((7-(3-(aminomethyl)phenyl)benzofuran-5-yl)methoxy)-4-methoxyphenyl)-2-(methylthio)acetic acid] | < 1000
3 | Cn1ncc2c(-c3ccnc(CN)c3)cc(COc3ccccc3CC(=O)O)cc21 [Compound 135c, 2-(2-((4-(2-(aminomethyl)pyridin-4-yl)-1-methyl-1H-indazol-6-yl)methoxy)phenyl)acetic acid] | < 1000
4 | NCc1cccc(-c2cc(COc3ccccc3CC(=O)O)cc3ccoc23)n1 [Compound 79c, 2-(2-((7-(6-(aminomethyl)pyridin-2-yl)benzofuran-5-yl)methoxy)phenyl)acetic acid] | < 1000
5 | NCCc1cccc(-c2cc(COc3ccccc3CC(=O)O)cc3ccoc23)c1 [Compound 95c, 2-(2-((7-(3-(2-aminoethyl)phenyl)benzofuran-5-yl)methoxy)phenyl)acetic acid] | < 1000
6 | NCc1cccc(-c2cc(COc3cc(C4CCCC4)ccc3CC(=O)O)cc3ccoc23)c1 [Compound 395c, 2-(2-((7-(3-(aminomethyl)phenyl)benzofuran-5-yl)methoxy)-4-cyclopentylphenyl)acetic acid] | < 1000
7 | CCOC(=O)Cc1ccccc1NC(=O)c1cc(-c2cccc(CN)c2)c2cc[nH]c2n1 [Compound 14c, ethyl 2-(2-(4-(3-(aminomethyl)phenyl)-1H-pyrrolo[2,3-b]pyridine-6-carboxamido)phenyl)acetate] | > 10000
8 | Cc1c[nH]c2cc(C(=O)Nc3ccccc3CC(=O)O)cc(-c3cccc(CN)c3)c12 [Compound 81d, 2-(2-(4-(3-(aminomethyl)phenyl)-3-methyl-1H-indole-6-carboxamido)phenyl)acetic acid] | > 10000
9 | NCc1cccc(-c2cc(COc3ccccc3CC(=O)O)cc3occc23)c1F [Compound 122b, 2-(2-((4-(3-(aminomethyl)-2-fluorophenyl)benzofuran-6-yl)methoxy)phenyl)acetic acid] | < 1000
10 | NCCNCc1cc2cc(COc3ccccc3CC(=O)O)cc(-c3cccc(CN)c3)c2o1 [Compound 196d, 2-(2-((2-(((2-aminoethyl)amino)methyl)-7-(3-(aminomethyl)phenyl)benzofuran-5-yl)methoxy)phenyl)acetic acid] | < 1000
11 | NCc1cccc(-c2nc(C(=O)Nc3sccc3CC(=O)O)cc3ccoc23)c1 [Compound 41d, 2-(2-(7-(3-(aminomethyl)phenyl)furo[2,3-c]pyridine-5-carboxamido)thiophen-3-yl)acetic acid] | < 1000
12 | NCc1cccc(-c2cc(COc3ccccc3CC(=O)O)cc3sc(Cl)cc23)c1 [Compound 215h, 2-(2-((4-(3-(aminomethyl)phenyl)-2-chlorobenzo[b]thiophen-6-yl)methoxy)phenyl)acetic acid] | < 1000
13 | CC(C)n1ccc2c(-c3ccnc(CN)c3F)cc(COc3cc(F)ccc3CC(=O)O)cc21 [Compound 495d, 2-(2-((4-(2-(aminomethyl)-3-fluoropyridin-4-yl)-1-isopropyl-1H-indol-6-yl)methoxy)-4-fluorophenyl)acetic acid] | < 1000
14 | NCc1nccc(-c2cc(COc3ccccc3CC(=O)O)cc3c2ccn3C(F)(F)F)c1F [Compound 533c, 2-(2-((4-(2-(aminomethyl)-3-fluoropyridin-4-yl)-1-(trifluoromethyl)-1H-indol-6-yl)methoxy)phenyl)acetic acid] | < 1000
15 | CCc1ccc(CC(=O)O)c(OCc2cc(-c3cccc(CN)c3F)c3oc(F)cc3c2)c1 [Compound 470b, 2-(2-((7-(3-(aminomethyl)-2-fluorophenyl)-2-fluorobenzofuran-5-yl)methoxy)-4-ethylphenyl)acetic acid] | < 1000
16 | Cn1ncc2c(-c3ccnc(CN)c3F)cc(COc3ccccc3CC(=O)O)cc21 [Compound 151c, 2-(2-((4-(2-(aminomethyl)-3-fluoropyridin-4-yl)-1-methyl-1H-indazol-6-yl)methoxy)phenyl)acetic acid] | < 1000
17 | NCc1nccc(-c2cc(COc3ccccc3CC(=O)O)cc3cc(F)oc23)c1F [Compound 300c, 2-(2-((7-(2-(aminomethyl)-3-fluoropyridin-4-yl)-2-fluorobenzofuran-5-yl)methoxy)phenyl)acetic acid] | < 1000
18 | NCc1cc(-c2cc(COc3ccccc3CC(=O)O)cc3c(C(F)(F)F)coc23)ccn1 [Compound 175c, 2-(2-((7-(2-(aminomethyl)pyridin-4-yl)-3-(trifluoromethyl)benzofuran-5-yl)methoxy)phenyl)acetic acid] | < 1000
19 | NCc1cc(-c2cc(COc3ccccc3CC(=O)O)cc3ccoc23)cs1 [Compound 339c, 2-(2-((7-(5-(aminomethyl)thiophen-3-yl)benzofuran-5-yl)methoxy)phenyl)acetic acid] | < 1000

Row | Structure (SMILES) | IC50 [nM]
20 | NCc1cccc(-c2cc(COc3ccccc3CC(=O)O)cc3[nH]ccc23)c1F [Compound 58b, 2-(2-((4-(3-(aminomethyl)-2-fluorophenyl)-1H-indol-6-yl)methoxy)phenyl)acetic acid] | < 1000
21 | NCc1cccc(-c2cc(COc3ccccc3CC(=O)O)cc3nccn23)c1 [Compound 107f, 2-(2-((5-(3-(aminomethyl)phenyl)imidazo[1,2-a]pyridin-7-yl)methoxy)phenyl)acetic acid] | < 1000
22 | C[C@H](N)c1cccc(-c2nc(C(=O)Nc3ccccc3CC(=O)O)c3cccn3n2)c1 [Compound 29d, (S)-2-(2-(2-(3-(1-aminoethyl)phenyl)pyrrolo[2,1-f][1,2,4]triazine-4-carboxamido)phenyl)acetic acid] | 1000 to 10000
23 | NCc1cc(-c2cc(COc3ccccc3CC(=O)O)cc3cc(CCO)oc23)ccn1 [Compound 185c, 2-(2-((7-(2-(aminomethyl)pyridin-4-yl)-2-(2-hydroxyethyl)benzofuran-5-yl)methoxy)phenyl)acetic acid] | < 1000
24 | Cc1ccc(CC(=O)O)c(OCc2cc(-c3cccc(CN)c3)c3occc3c2)c1C [Compound 292f, 2-(2-((7-(3-(aminomethyl)phenyl)benzofuran-5-yl)methoxy)-3,4-dimethylphenyl)acetic acid] | < 1000
25 | Cc1ccc(CC(=O)O)c(OCc2cc(-c3cccc(CN)c3)c3sccc3c2)c1 [Compound 443i, 2-(2-((7-(3-(aminomethyl)phenyl)benzo[b]thiophen-5-yl)methoxy)-4-methylphenyl)acetic acid] | < 1000
26 | NCc1nccc(-c2cc(COc3ccccc3CC(=O)O)cc3c(C(F)(F)F)coc23)c1F [Compound 181d, 2-(2-((7-(2-(aminomethyl)-3-fluoropyridin-4-yl)-3-(trifluoromethyl)benzofuran-5-yl)methoxy)phenyl)acetic acid] | < 1000
27 | NCc1cccc(-c2cc(COc3ccccc3CC(=O)O)cc3cc(F)oc23)c1 [Compound 227e, 2-(2-((7-(3-(aminomethyl)phenyl)-2-fluorobenzofuran-5-yl)methoxy)phenyl)acetic acid] | < 1000
28 | CC(C)n1ccc2c(-c3ccnc(CN)c3)cc(COc3cc(F)ccc3CC(=O)O)cc21 [Compound 496c, 2-(2-((4-(2-(aminomethyl)pyridin-4-yl)-1-isopropyl-1H-indol-6-yl)methoxy)-4-fluorophenyl)acetic acid] | < 1000
29 | NCc1ccc(CC(=O)O)c(OCc2cc(-c3ccnc(CN)c3F)c3occc3c2)c1 [Compound 405e, 2-(4-(aminomethyl)-2-((7-(2-(aminomethyl)-3-fluoropyridin-4-yl)benzofuran-5-yl)methoxy)phenyl)acetic acid] | < 1000
30 | Cn1ccc2c(-c3ccnc(CN)c3F)cc(COc3ccccc3CC(=O)O)cc21 [Compound 150b, 2-(2-((4-(2-(aminomethyl)-3-fluoropyridin-4-yl)-1-methyl-1H-indol-6-yl)methoxy)phenyl)acetic acid] | < 1000
31 | NCc1cccc(-c2cc(COc3ccccc3CC(=O)O)cc3cc(Cl)oc23)c1 [Compound 169f, 2-(2-((7-(3-(aminomethyl)phenyl)-2-chlorobenzofuran-5-yl)methoxy)phenyl)acetic acid] | < 1000
32 | CCc1ccc(CC(=O)O)c(OCc2cc(-c3ccnc(CN)c3)c3oc(F)cc3c2)c1 [Compound 390c, 2-(2-((7-(2-(aminomethyl)pyridin-4-yl)-2-fluorobenzofuran-5-yl)methoxy)-4-ethylphenyl)acetic acid] | < 1000
33 | COc1ccc(OCc2cc(-c3cccc(CN)c3F)c3ccn(C(C)C)c3c2)c(CC(=O)O)c1 [Compound 475g, 2-(2-((4-(3-(aminomethyl)-2-fluorophenyl)-1-isopropyl-1H-indol-6-yl)methoxy)-5-methoxyphenyl)acetic acid] | < 1000
34 | CS(=O)(=O)n1ccc2c(-c3ccnc(CN)c3)cc(COc3ccccc3CC(=O)O)cc21 [Compound 211c, 2-(2-((4-(2-(aminomethyl)pyridin-4-yl)-1-(methylsulfonyl)-1H-indol-6-yl)methoxy)phenyl)acetic acid] | < 1000
35 | N#Cc1ccc(OCc2cc(-c3cccc(CN)c3)c3occc3c2)c(CC(=O)O)c1 [Compound 239c, 2-(2-((7-(3-(aminomethyl)phenyl)benzofuran-5-yl)methoxy)-5-cyanophenyl)acetic acid] | < 1000
36 | CC(C)n1ccc2c(-c3ccnc(CN)c3F)cc(COc3ccccc3CC(=O)O)cc21 [Compound 121b, 2-(2-((4-(2-(aminomethyl)-3-fluoropyridin-4-yl)-1-isopropyl-1H-indol-6-yl)methoxy)phenyl)acetic acid] | < 1000
37 | COc1ccc(OCc2cc(-c3cccc(CN)c3)c3occc3c2)c(CC(=O)O)c1 [Compound 350e, 2-(2-((7-(3-(aminomethyl)phenyl)benzofuran-5-yl)methoxy)-5-methoxyphenyl)acetic acid] | < 1000
